Measured values as given in article PMC8742467, “Therapeutical interference with the epigenetic landscape of germ cell tumors: a comparative drug study and new mechanistical insights” (Clinical Epigenetics, 2022).

Assays:
[1] = test system: JAR (CC); test: XTT cell viability assay, JAR; format: cell-based; settings: Homo sapiens, after 48 h, n = 4, read-out: EC50 colour/symbol code, CC JAR
Method: (§1) The […] (XTT) assays were performed as described previously. In summary, for GCT and fibroblast cell lines 5 × 10^3 cells (3 × 10^3 for UC, PCa and RCC cell lines) per 96-well were seeded and different drug concentrations (see Additional file 2: Fig. S2, Additional file 3: Fig. S3) or corresponding solvents were added to the cells the following day. For drug details see Additional file 12: Table S2 C. Each condition was analyzed in four technical replicates and EC50 values were calculated by GraphPad Prism v8.

[2] = test system: SE (seminoma) cell lines; test: XTT cell viability assay, mean per entity SE; format: cell-based; settings: Homo sapiens, after 48 h
Method: as §1

[3] = test system: DNA methylation (5mC, 5hmC) in 2102EP cells; test: DNA slot blot (5mC, 5hmC); format: cell-based, Human; settings: 24 h
Method: Purity of DNA was verified using NanoDrop 260/280 ratio and agarose gel electrophoresis. DNA was diluted in H2O to 200 ng, 100 ng and 50 ng in 200 µl per slot. Slot-Blotter device (Carl Roth GmbH + Co KG, Karlsruhe, Germany) was assembled as according to the manual. DNA was blotted onto a positively charged nylon membrane (Carl Roth GmbH + Co KG, Karlsruhe, Germany) using vacuum application. Three identical membranes were prepared. The membranes were air-dried for 15—20 min and UV-crosslinked (20 s (s), 1200 mJ/cm^2). One membrane was stained with methylene blue (0.02% methylene blue (Merck Millipore, Darmstadt, Germany) in 0.3 M sodium acetate (pH 5.2)) to validate DNA loading across the samples. The remaining two membranes were blocked in 5% milk powder in PBST for 1 h at RT. Membranes were incubated with 5mC or 5hmC antibody overnight at 4 °C. After washing, membranes were incubated with secondary antibody for 2 h at RT. Signals were detected using the ChemiDoc Imaging Systems (Bio-Rad Laboratories, Feldkirchen, Germany).

[4] = test system: histone modifications in 2102EP cells; test: Mass spectrometry analysis of histone modifications (Mod Spec); format: cell-based, Human
Procedure, shortened: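 2102EP cells were treated for 16 h with EC50 concentrations of Quisinostat, JIB-04, Chaetocin, MZ-1, LP99, PRT4165 or GSK343, with DMSO as solvent control. After trypsin harvest, histones were extracted and analysed by mass spectrometry. Raw data were converted to z-scores.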

[5] = test system: CC (choriocarcinoma) cell lines JAR, JEG-3, BeWo; test: XTT cell viability assay, CC cell lines; format: cell-based; settings: Homo sapiens; after 48 h, mean per entity
Method: as §1

[6] = test system: 2102EP-R; test: Flow cytometry apoptosis (Annexin V/PI), 2102EP-R; format: cell-based, Human; settings: EC50, 16 h, compared to the parental cell line
Method: For Annexin V/PI staining, cells were washed with Annexin V Binding Buffer before being resuspended in 70 µl Annexin V Binding Buffer and 2.5 μl Annexin V FITC-conjugate (both Miltenyi Biotec, Bergisch Gladbach, Germany) and 15 µg PI (Sigma-Aldrich, Taufkirchen, Germany) and incubated in the dark at room temperature for 15 min. 500 µl of Annexin V Binding Buffer was added before measurement.

[7] = test system: EC-R (cisplatin-resistant embryonal carcinoma subclones); test: XTT cell viability assay, mean per entity EC-R; format: cell-based; settings: Homo sapiens, after 48 h
Method: as §1

[8] = test system: fibroblasts (MPAF, HVHF2); test: XTT cell viability assay, fibroblasts; format: cell-based; settings: Homo sapiens, Fibroblast; after 48 h, mean
Method: as §1

[9] = 2102EP cells, Mod Spec raw data
[10] = 2102EP, EC50, 16 h, vs solvent control

Compound: CCCc1cc(C)[nH]c(=O)c1CNC(=O)c1cc(-c2ccnc(N3CCN(C)CC3)c2)cc2c1cnn2C(C)C [GSK343]
- EC50 [1]: 1 to 50 µM
- EC50 [2]: 12.1 µM
- 5hmC levels increase compared to solvent control [3]: 30%
- 5mC levels compared to solvent control ([3]; solvent control set to 100%): 52%
- H1.4: K25AC, % of peptide pool [4, 9]: 0.006216%
- H1.4: K25ME1, % of peptide pool [4, 9]: 2.263%
- H1.4: K25ME2, % of peptide pool [4, 9]: 0.05379%
- H1.4: K25ME3, % of peptide pool [4, 9]: 0.00622%
- H1.4: K25UN, % of peptide pool [4, 9]: 97.6705%
- H2A1: K13AC, % of peptide pool [4, 9]: 0.008349%
- H2A1: K13UN, % of peptide pool [4, 9]: 99.9917%
- H2A1: K15AC, % of peptide pool [4, 9]: 0.01155%
- H2A1: K15UB, % of peptide pool [4, 9]: 0%
- H2A1: K15UN, % of peptide pool [4, 9]: 99.9884%
- H2A3: K13AC, % of peptide pool [4, 9]: 0.06695%
- H2A3: K13UN, % of peptide pool [4, 9]: 99.933%
- H2A3: K15AC, % of peptide pool [4, 9]: 0.06714%
- H2A3: K15UB, % of peptide pool [4, 9]: 0%
- H2A3: K15UN, % of peptide pool [4, 9]: 99.9329%
- H2A: K5AC, % of peptide pool [4, 9]: 13.1006%
- H2A: K5UN, % of peptide pool [4, 9]: 86.8994%
- H2A: K9AC, % of peptide pool [4, 9]: 1.639%
- H2A: K9UN, % of peptide pool [4, 9]: 98.3613%
- H2A: K36AC, % of peptide pool [4, 9]: 0.03993%
- H2A: K36UN, % of peptide pool [4, 9]: 99.9601%
- H3: K9AC, % of peptide pool [4, 9]: 0.6993%
- H3: K9ME1, % of peptide pool [4, 9]: 34.216%
- H3: K9ME2, % of peptide pool [4, 9]: 32.7434%
- H3: K9ME3, % of peptide pool [4, 9]: 3.375%
- H3: K9UN, % of peptide pool [4, 9]: 28.9663%
- H3: K14AC, % of peptide pool [4, 9]: 31.7092%
- H3: K14UN, % of peptide pool [4, 9]: 68.2908%
- H3: K18AC, % of peptide pool [4, 9]: 12.5517%
- H3: K18ME1, % of peptide pool [4, 9]: 0.1858%
- H3: K18UN, % of peptide pool [4, 9]: 87.2625%
- H3: K23AC, % of peptide pool [4, 9]: 21.2228%
- H3: K23ME1, % of peptide pool [4, 9]: 0.01722%
- H3: K23UN, % of peptide pool [4, 9]: 78.76%
- H3: K56AC, % of peptide pool [4, 9]: 0.2947%
- H3: K56ME1, % of peptide pool [4, 9]: 0.4365%
- H3: K56UN, % of peptide pool [4, 9]: 99.2689%
- H3: K64AC, % of peptide pool [4, 9]: 0.01667%
- H3: K64UN, % of peptide pool [4, 9]: 99.9833%
- H3: K79AC, % of peptide pool [4, 9]: 0.7184%
- H3: K79ME1, % of peptide pool [4, 9]: 16.7848%
- H3: K79ME2, % of peptide pool [4, 9]: 6.651%
- H3: K79ME3, % of peptide pool [4, 9]: 10.1333%
- H3: K79UN, % of peptide pool [4, 9]: 65.7124%
- H3: K122AC, % of peptide pool [4, 9]: 0.136%
- H3: K122UN, % of peptide pool [4, 9]: 99.864%
- H3: Q19ME1, % of peptide pool [4, 9]: 0.007707%
- H3: Q19UN, % of peptide pool [4, 9]: 99.9923%
- H3: Q55ME1, % of peptide pool [4, 9]: 0.1478%
- H3: Q55UN, % of peptide pool [4, 9]: 99.8522%
- H3: R42ME2, % of peptide pool [4, 9]: 3.196%
- H3: R42UN, % of peptide pool [4, 9]: 96.8039%
- H3: R49ME2, % of peptide pool [4, 9]: 7.636%
- H3: R49UN, % of peptide pool [4, 9]: 92.3639%
- H3R2UN: K4AC, % of peptide pool [4, 9]: 0.06759%
- H3R2UN: K4ME1, % of peptide pool [4, 9]: 18.4584%
- H3R2UN: K4ME2, % of peptide pool [4, 9]: 0.1346%
- H3R2UN: K4ME3, % of peptide pool [4, 9]: 0.0559%
- H3R2UN: K4UN, % of peptide pool [4, 9]: 81.2835%
- H3R2UN: Q5ME1, % of peptide pool [4, 9]: 0.1125%
- H3R2UN: Q5UN, % of peptide pool [4, 9]: 99.8875%
- H3.1: K27AC, % of peptide pool [4, 9]: 2.595%
- H3.1: K27ME1, % of peptide pool [4, 9]: 48.9633%
- H3.1: K27ME2, % of peptide pool [4, 9]: 15.6374%
- H3.1: K27ME3, % of peptide pool [4, 9]: 2.258%
- H3.1: K27UN, % of peptide pool [4, 9]: 30.5467%
- H3.1: K36AC, % of peptide pool [4, 9]: 0.2238%
- H3.1: K36ME1, % of peptide pool [4, 9]: 13.8902%
- H3.1: K36ME2, % of peptide pool [4, 9]: 50.2838%
- H3.1: K36ME3, % of peptide pool [4, 9]: 20.6064%
- H3.1: K36UN, % of peptide pool [4, 9]: 14.9959%
- H3.3: K27AC, % of peptide pool [4, 9]: 7.138%
- H3.3: K27M, % of peptide pool [4, 9]: 0%
- H3.3: K27ME1, % of peptide pool [4, 9]: 44.2688%
- H3.3: K27ME2, % of peptide pool [4, 9]: 12.6213%
- H3.3: K27ME3, % of peptide pool [4, 9]: 4.2957%
- H3.3: K27UN, % of peptide pool [4, 9]: 31.6757%
- H3.3: K36AC, % of peptide pool [4, 9]: 3.015%
- H3.3: K36ME1, % of peptide pool [4, 9]: 12.2658%
- H3.3: K36ME2, % of peptide pool [4, 9]: 51.706%
- H3.3: K36ME3, % of peptide pool [4, 9]: 19.9849%
- H3.3: K36UN, % of peptide pool [4, 9]: 13.0282%
- H4: K5AC, % of peptide pool [4, 9]: 7.684%
- H4: K5UN, % of peptide pool [4, 9]: 92.3159%
- H4: K8AC, % of peptide pool [4, 9]: 10.6823%
- H4: K8UN, % of peptide pool [4, 9]: 89.3177%
- H4: K12AC, % of peptide pool ([4]; 2102EP cells, Mod Spec raw data, histone H4 K12 acetylated): 6.039 % of peptide pool
- H4: K12UN, % of peptide pool ([4]; 2102EP cells, Mod Spec raw data, histone H4 K12 unmodified): 93.9609 % of peptide pool
- H4: K16AC, % of peptide pool ([4]; 2102EP cells, Mod Spec raw data, histone H4 K16 acetylated): 41.5696 % of peptide pool
- H4: K16UN, % of peptide pool ([4]; 2102EP cells, Mod Spec raw data, histone H4 K16 unmodified): 58.4304 % of peptide pool
- H4: K20AC, % of peptide pool ([4]; 2102EP cells, Mod Spec raw data, histone H4 K20 acetylated): 21.2904 % of peptide pool
- H4: K20ME2, % of peptide pool ([4]; 2102EP cells, Mod Spec raw data, histone H4 K20 dimethylated): 42.0499 % of peptide pool
- H4: K20ME1, % of peptide pool ([4]; 2102EP cells, Mod Spec raw data, histone H4 K20 monomethylated): 3.554 % of peptide pool
- H4: K20ME3, % of peptide pool ([4]; 2102EP cells, Mod Spec raw data, histone H4 K20 trimethylated): 1.778 % of peptide pool
- H4: K20UN, % of peptide pool ([4]; 2102EP cells, Mod Spec raw data, histone H4 K20 unmodified): 31.3272 % of peptide pool
- change of histone modifications of the expected mode of action (Mod Spec) [4, 10]: decreased H3K27 methylation
- off-target changes of histone modifications (Mod Spec) [4, 10]: increase of H4K20ac
- EC50 [5]: 10.4 µM
- apoptosis induction in 2102EP-R [6]: did not induce apoptosis
- EC50 [7]: 9.41 µM
- EC50 [8]: 9.79 µM
